# Test results taken from patent US20230233533A1, “COMPOSITIONS, METHODS OF TREATING AND PREVENTING FUNGAL INFECTIONS, AND METHODS OF INHIBITING PRP8 INTEIN EXPRESSION” (Health Research, Inc., priority 2020, published 2023).
# Where “and” joins values, the source holds several entries; their conditions need not be identical. Equal entries are not always repeated.
# How the values were obtained:
# [1] = target: T1, Prp8 intein (Cryptococcus gattii, UniProt E6R027); experiment: Split Renilla luciferase RLuc-Prp8 intein splicing assay; assay type: biochemical; conditions: compound at 20 μM
# [2] = target: T1, Prp8 intein; experiment: MIG-Prp8 in-gel splicing assay; assay type: biochemical; conditions: E. coli lysate, TCEP-triggered
# Protocol: The MIG-Prp8 and Prp8-GFP in-gel splicing assays—The MIG Prp8 and Prp8-GFP splicing assays were carried out as described. […] The samples were analyzed in SDS-PAGE without boiling. The gels were quantified using GFP fluorescence and Coomassie blue staining with the Bio-Rad Gel Doc EZ.
# This reporter system, MIG-Prp8, comprising a fusion protein of the Prp8 intein flanked by maltose binding protein (MBP) and green fluorescent protein (GFP), allowed observation of functional Prp8 intein splicing in Escherichia coli lysate. […] C-terminal cleavage product (CC; GFP) could also be visualized.
# [3] = target: T2, papain (Carica papaya, UniProt P00784); experiment: Papain protease inhibition (Abz FRET substrate); assay type: biochemical; conditions: compound at 400 μM
# T2 construct: purchased Sigma-Aldrich
# T2 sequence (P00784 134-345): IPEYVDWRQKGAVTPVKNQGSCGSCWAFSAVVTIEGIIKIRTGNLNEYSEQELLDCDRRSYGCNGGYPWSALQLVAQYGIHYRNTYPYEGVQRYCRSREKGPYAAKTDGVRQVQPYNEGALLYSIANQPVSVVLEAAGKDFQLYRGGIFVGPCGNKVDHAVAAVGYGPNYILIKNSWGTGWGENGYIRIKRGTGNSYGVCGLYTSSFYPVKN
# Protocol: Trypsin and papain protease inhibition—An Abz FRET substrate (Abz-RRRRSAG-nTyr) developed previously (Li et al., “Existing Drugs as Broad-Spectrum and Potent Inhibitors for Zika Virus by Targeting NS2B-NS3 Interaction,” Cell Research 27(8):1046-1064 (2017), which is hereby incorporated by reference in its entirety) was used as the substrate for inhibition of trypsin and papain proteases. In black and clear-bottom 96-well plates, 1 μg trypsin (Sigma-Aldrich) was incubated with DMF or compounds at 400 μM at 25° C. for 30 min in a 70 μl reaction buffer containing 20 mM Tris, pH 8.0, 100 mM NaCl, 5% Glycerol, and 0.05% CHAPS. For papain, 1 μg Papain (Sigma-Aldrich) was incubated with compounds at 400 μM at 25° C. for 30 min in a 70 μl reaction buffer composed of 1.1 mM EDTA, 0.067 mM β-mercaptoethanol, 5.5 mM cysteine. […]
# [4] = in vitro; assay type: cell-based, human; conditions: human, CC50 A549
# Summary of the method: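 A549 cells (5×10^3 per well) were exposed to compounds at 37 °C for 48 h, and viability was read by MTT assay; N=3.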
# [5] = target: T3, C1A Prp8 intein mutant (Cryptococcus gattii, UniProt E6R027, C1531A); conditions: C1A versus WT, SPR
# T3 sequence (E6R027 1531-1700 C1531A): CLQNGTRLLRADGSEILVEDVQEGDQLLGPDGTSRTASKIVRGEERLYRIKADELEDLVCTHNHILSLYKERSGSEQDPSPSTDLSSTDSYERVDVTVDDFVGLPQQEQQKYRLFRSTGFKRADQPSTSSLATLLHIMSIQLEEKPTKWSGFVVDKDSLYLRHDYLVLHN
# Protocol: The Prp8 intein and mutants were immobilized onto a ProteOn™ GLH sensor chip (2,500-7,000 RU) (Bio-Rad). A 3-fold dilution series of compounds was injected as the analytes. A blank surface blocked by ethanolamine was used as the control surface. The experiment was carried out at a flow rate of 100 μl/min using a PBSTD buffer containing 1×PBS, 0.005% surfactant P20, and 5% DMSO. Association (ka) and dissociation (kd) rates, as well as the dissociation constant (KD), were obtained by global fitting of the SPR data from multiple concentrations to a simple 1:1 Langmuir binding model, using the ProteOn Manager software suite (Bio-Rad).
# [6] = tested on: C. neoformans (H99); experiment: In vivo preliminary efficacy study, intranasal infection of BALB/c mice; design: species or system Cryptococcus neoformans; conditions: 75 mg/kg oral gavage once daily
# Protocol: FIG. 7 illustrates efficacy of 6G318S in mouse models. BALB/c mice (5-6 wk old, male and female were dosed orally by either vehicle control (VC) or 6G318S-75 mg/kg once daily for 5 days. On day 5, all mice were euthanized, lungs were collected, weighed and homogenized in RPMI-1640-MOPS media. Serial 10-fold dilution of the homogenate is made and a volume of 100 ul is plated on to Sabouraud Dextrose-agar plates with antibiotics. Colonies were counted on day 3 and normalized to weight of the lung.
# Treatment was given for 6 days. On day 6 few mice were euthanized to check the […] in lungs.
smiles,measurement,setting,value
"O=C(Nc1ccc(F)cc1)c1nnsc1S(=O)(=O)c1ccc(Cl)cc1 [6G-318S, 5-[(4-chlorophenyl)sulfonyl]-N-(4-fluorophenyl)-1,2,3-thiadiazole-4-carboxamide]",suppression of RLuc-Prp8 intein splicing activity,[1],greater than 50%
same,inhibition of MIG-Prp8 splicing,[2],accumulation of the MIG-Prp8 precursor PP and decrease of LE product in a dose-dependent manner
same,inhibition of papain protease activity,[3],"neither 6G-318S, 6G-319S, nor cisplatin significantly inhibited"
same,CC50 at 48 h,[4],13.9 µg/mL and ~35 µM
same,reduction of binding affinity by Cys1 to alanine mutation,[5],~3 fold
same,fungal cells in lungs versus vehicle controls,[6],indication of reduction of fungal cells in lungs
